The values that follow are results of earlier work, collected in US12577179B2, “Methods and compositions for soil regeneration and improved soil hydrology” (Locus Solutions IPCo, LLC, priority 2021, dated 2026).

For this data set the following is noted: surfactant micelles; no method or source given.
In the case of Nonidet P40, the micelle size is on record as 15.4 nm.
As for Triton X-100, the micelle size was 7.5 nm.
Regarding `CCCCCCCCCCCCOS(=O)(=O)[O-].[Na+]` [sodium dodecyl sulfate], the micelle size is on record as 3.5-6 nm.
For the molecule `CCCCCCCC/C=C\CCCCCCCC(=O)OCCOCC(OCCO)C1OCC(OCCO)C1OCCO` (stereo not shown) [Tween-80], the micelle size is on record as 11.7 nm.
